Laboratory results as given in US20080058213A1, “Benzoxazole Compounds” (priority 2004, published 2008).

Experiments:
Format in all cases: in vivo
[1] = tested on: southern crabgrass (Digitaria ciliaris); test: Soil treatment test for upland field (Test Example 2): southern crabgrass; conditions: soil treatment before germination, examined after 3 weeks
Text: (§1) Evaluation of the herbicidal effect is shown in the following six grades, by comparing the condition of untreated control and growth inhibition (%): • 0: 0%-less than 20% • 1: 20%-less than 40% • 2: 40%-less than 60% • 3: 60%-less than 80% • 4: 80%-less than 100% • 5: 100%.
(§2) Upland field soil was filled in 1/3,000 are pots, seeded with southern crabgrass (Digitaria ciliaris), common lambsquaters (Chenopodium album), slender amaranth (Amaranthus viridis), common purslane (Portulaca oleracea), velvetleaf (Abutilon theophrasti), wheat, corn and soybean. The seeds were covered up with the soil.
(§3) Wettable powders containing the object compounds (1) as identified in Table 1, which were formulated following Preparation Example 2, were diluted with adequate amount of water to secure the prescribed dose of the active ingredient, and uniformly sprayed onto the surface soil layer after the seeding and before germination of the weeds, at an application water of 15 liters per are.
(§4) After placing the test pots in a glasshouse which was kept at an average temperature of 25° C. for 3 weeks, the herbicidal effect was examined.
(§5) Evaluations of the herbicidal effect and phytotoxicity were made in the manner similar to those in the above Test Example 1.

[2] = tested on: common lambsquaters (Chenopodium album); test: Soil treatment test for upland field (Test Example 2): common lambsquaters; conditions: soil treatment before germination, examined after 3 weeks
Text: as §1, §2, §3, §4, §5

[3] = tested on: slender amaranth (Amaranthus viridis); test: Soil treatment test for upland field (Test Example 2): slender amaranth; conditions: soil treatment before germination, examined after 3 weeks
Text: as §1, §2, §3, §4, §5

[4] = tested on: common purslane (Portulaca oleracea); test: Soil treatment test for upland field (Test Example 2): common purslane; conditions: soil treatment before germination, examined after 3 weeks
Text: as §1, §2, §3, §4, §5

[5] = tested on: velvetleaf (Abutilon theophrasti); test: Soil treatment test for upland field (Test Example 2): velvetleaf; conditions: soil treatment before germination, examined after 3 weeks
Text: as §1, §2, §3, §4, §5

wheat [6] = test: Soil treatment test for upland field (Test Example 2): phytotoxicity to wheat; conditions: soil treatment before germination, examined after 3 weeks
Text: (§6) Evaluation of phytotoxicity is shown in the following six grades, as compared with the condition of untreated control: • 0: normal growth • 1: little damaged • 2: low damaged • 3: medium damaged • 4: serious damaged • 5: complete killed.
as §2, §4

corn [7] = test: Soil treatment test for upland field (Test Example 2): phytotoxicity to corn; conditions: soil treatment before germination, examined after 3 weeks
Text: as §6, §2, §4

soybean [8] = test: Soil treatment test for upland field (Test Example 2): phytotoxicity to soybean; conditions: soil treatment before germination, examined after 3 weeks
Text: as §6, §2, §4

southern crabgrass = test: Foliage treatment test for upland field (Test Example 3): southern crabgrass; conditions: foliage treatment at 1.0-2.0 leaf stage of southern crabgrass, examined after 3 weeks
Text: as §1
(§7) Compost mixed soil was filled in 1/3,000 are pots, seeded with southern crabgrass, common lambsquaters, slender amaranth, common purslane, velvetleaf, wheat, corn and soybean. The seeds were covered up with the soil and cultured in a glasshouse kept at 25° C. on the average.
(§8) Wettable powders containing the object compounds (1) as identified in Table 1, which were formulated following Preparation Example 2, were diluted with water to the prescribed dose of the active ingredient, and uniformly sprayed onto the weeds at 1.0-2.0 leaf stage of the southern crabgrass at an application water of 15 liters per are.
(§9) After placing the test pots in a grasshouse kept at 25° C. on the average for 3 weeks, the herbicidal effect was examined.
(§10) Evaluation of the herbicidal effect was conducted in the similar manner to Test Example 1.

common lambsquaters = test: Foliage treatment test for upland field (Test Example 3): common lambsquaters; conditions: foliage treatment at 1.0-2.0 leaf stage of southern crabgrass, examined after 3 weeks
Text: as §1, §7, §8, §9, §10

slender amaranth = test: Foliage treatment test for upland field (Test Example 3): slender amaranth; conditions: foliage treatment at 1.0-2.0 leaf stage of southern crabgrass, examined after 3 weeks
Text: as §1, §7, §8, §9, §10

common purslane = test: Foliage treatment test for upland field (Test Example 3): common purslane; conditions: foliage treatment at 1.0-2.0 leaf stage of southern crabgrass, examined after 3 weeks
Text: as §1, §7, §8, §9, §10

velvetleaf = test: Foliage treatment test for upland field (Test Example 3): velvetleaf; conditions: foliage treatment at 1.0-2.0 leaf stage of southern crabgrass, examined after 3 weeks
Text: as §1, §7, §8, §9, §10

wheat [9] = test: Foliage treatment test for upland field (Test Example 3): phytotoxicity to wheat; conditions: foliage treatment at 1.0-2.0 leaf stage of southern crabgrass, examined after 3 weeks
Procedure: as §6, §7, §9

corn [10] = test: Foliage treatment test for upland field (Test Example 3): phytotoxicity to corn; conditions: foliage treatment at 1.0-2.0 leaf stage of southern crabgrass, examined after 3 weeks
Procedure: as §6, §7, §9

soybean [11] = test: Foliage treatment test for upland field (Test Example 3): phytotoxicity to soybean; conditions: foliage treatment at 1.0-2.0 leaf stage of southern crabgrass, examined after 3 weeks
Procedure: as §6, §7, §9

[12] = tested on: barnyard grass (Echinochloa crusgalli); test: Weed control test for paddy field (Test Example 1): barnyard grass; conditions: paddy pots, treated at 1.0 leaf stage of barnyard grass, examined after 3 weeks
Text: (§11) Paddy field soil was filled in 1/10,000 are pots, kneaded with adequate amounts of water and chemical fertilizer, seeded with barnyard grass (Echinochloa crusgalli), Monochoria (Monochoria vaginalis), Japanese bulrush (Scirpus juncoides) and flat sedge (Cyperus serotinus), and further transplanted with 2.0 leaf stage of rice plant. The pots were maintained under the water-filled condition to a depth of 3 cm.
(§12) Wettable powders containing the compounds (1) as identified in Table 1, which were formulated following Production Example 2, were diluted with adequate amount of water and applied to the pots dropwise with pippet at a prescribed dose of the active ingredients per are, at 1.0 leaf stage of the barnyard grass.
(§13) After placing the pots in a glasshouse which was controlled at an average temperature of 25° C. for 3 weeks, herbicidal effect was examined.
as §1

[13] = tested on: Monochoria (Monochoria vaginalis); test: Weed control test for paddy field (Test Example 1): Monochoria; conditions: paddy pots, treated at 1.0 leaf stage of barnyard grass, examined after 3 weeks
Text: as §11, §12, §13, §1

[14] = tested on: Japanese bulrush (Scirpus juncoides); test: Weed control test for paddy field (Test Example 1): Japanese bulrush; conditions: paddy pots, treated at 1.0 leaf stage of barnyard grass, examined after 3 weeks
Text: as §11, §12, §13, §1

[15] = tested on: flat sedge (Cyperus serotinus); test: Weed control test for paddy field (Test Example 1): flat sedge; conditions: paddy pots, treated at 1.0 leaf stage of barnyard grass, examined after 3 weeks
Text: as §11, §12, §13, §1

rice plant = test: Weed control test for paddy field (Test Example 1): phytotoxicity to rice plant; conditions: paddy pots, treated at 1.0 leaf stage of barnyard grass, examined after 3 weeks
Text: as §11, §12, §13, §6

With `FC(F)C(F)(F)COCC(=Cc1cccc(C(F)(F)F)c1)c1nc2cc(C(F)(F)F)ccc2o1` [Compound 87] the “Herbicidal Effect southern crabgrass” value ([1]; dose 2.5 g ai/a) was 4 (80%-less than 100%), the “Herbicidal Effect southern crabgrass” value ([1]; dose 5 g ai/a) was 5 (100%) and the “Herbicidal Effect common lambsquaters” value ([2]; dose 2.5 g ai/a) was 5 (100%). For the same compound, the “Herbicidal Effect common lambsquaters” value ([2]; dose 5 g ai/a) was 5 (100%), the “Herbicidal Effect slender amaranth” value ([3]; dose 2.5 g ai/a) was 5 (100%) and the “Herbicidal Effect slender amaranth” value ([3]; dose 5 g ai/a) was 5 (100%). For the same compound, the “Herbicidal Effect common purslane” value ([4]; dose 2.5 g ai/a) was 5 (100%), the “Herbicidal Effect common purslane” value ([4]; dose 5 g ai/a) was 5 (100%) and the “Herbicidal Effect velvetleaf” value ([5]; dose 2.5 g ai/a) was 4 (80%-less than 100%). For the same compound, the “Herbicidal Effect velvetleaf” value ([5]; dose 5 g ai/a) was 5 (100%), the Phytotoxicity wheat (wheat [6]; dose 2.5 g ai/a) was 0 and the Phytotoxicity wheat (wheat [6]; dose 5 g ai/a) was 1. The Phytotoxicity corn (corn [7]; dose 2.5 g ai/a) was 0, the Phytotoxicity corn (corn [7]; dose 5 g ai/a) was 0 and the Phytotoxicity soybean (soybean [8]; dose 2.5 g ai/a) was 0. For the same compound, the Phytotoxicity soybean (soybean [8]; dose 5 g ai/a) was 1, the “Herbicidal Effect southern crabgrass” value (southern crabgrass; dose 2.5 g ai/a) was 4 (80%-less than 100%) and the “Herbicidal Effect southern crabgrass” value (southern crabgrass; dose 5 g ai/a) was 5 (100%). The “Herbicidal Effect Common lambsquatters” value (common lambsquaters; dose 2.5 g ai/a) was 5 (100%), the “Herbicidal Effect Common lambsquatters” value (common lambsquaters; dose 5 g ai/a) was 5 (100%) and the “Herbicidal Effect slender amaranth” value (slender amaranth; dose 2.5 g ai/a) was 5 (100%). For the same compound, the “Herbicidal Effect slender amaranth” value (slender amaranth; dose 5 g ai/a) was 5 (100%), the “Herbicidal Effect common purslane” value (common purslane; dose 2.5 g ai/a) was 5 (100%) and the “Herbicidal Effect common purslane” value (common purslane; dose 5 g ai/a) was 5 (100%). The “Herbicidal Effect velvetleaf” value (velvetleaf; dose 2.5 g ai/a) was 4 (80%-less than 100%), the “Herbicidal Effect velvetleaf” value (velvetleaf; dose 5 g ai/a) was 5 (100%) and the Phytotoxicity wheat (wheat [9]; dose 2.5 g ai/a) was 0. For the same compound, the Phytotoxicity wheat (wheat [9]; dose 5 g ai/a) was 1, the Phytotoxicity corn (corn [10]; dose 2.5 g ai/a) was 0 and the Phytotoxicity corn (corn [10]; dose 5 g ai/a) was 1. The Phytotoxicity soybean (soybean [11]; dose 2.5 g ai/a) was 1 and the Phytotoxicity soybean (soybean [11]; dose 5 g ai/a) was 1.

In the case of `CCOCC(=Cc1cccc(C(F)(F)F)c1)c1nc2cc(F)cc(F)c2o1` [Compound 112], the “Herbicidal Effect Barnyard grass” value ([12]; dose 2.5 g ai/a) is reported as 4 (80%-less than 100%), the “Herbicidal Effect Barnyard grass” value ([12]; dose 5 g ai/a) is reported as 5 (100%) and the “Herbicidal Effect Monochoria vaginalis” value ([13]; dose 2.5 g ai/a) is reported as 5 (100%). For the same compound, the “Herbicidal Effect Monochoria vaginalis” value ([13]; dose 5 g ai/a) was 5 (100%), the “Herbicidal Effect Japanese bulrush” value ([14]; dose 2.5 g ai/a) was 4 (80%-less than 100%) and the “Herbicidal Effect Japanese bulrush” value ([14]; dose 5 g ai/a) was 5 (100%). The “Herbicidal Effect Flat sedge” value ([15]; dose 2.5 g ai/a) was 3 (60%-less than 80%), the “Herbicidal Effect Flat sedge” value ([15]; dose 5 g ai/a) was 4 (80%-less than 100%) and the “Phytotoxicity Rice plant” value (rice plant; dose 2.5 g ai/a) was 0. For the same compound, the “Phytotoxicity Rice plant” value (rice plant; dose 5 g ai/a) was 1.

`COCC(=Cc1cccc(C(F)(F)F)c1)c1nc2cc(C(C)(C)C)ccc2o1` [Compound 151] was tested, and the “Herbicidal Effect Barnyard grass” value ([12]; dose 2.5 g ai/a) was 4 (80%-less than 100%), the “Herbicidal Effect Barnyard grass” value ([12]; dose 5 g ai/a) was 5 (100%) and the “Herbicidal Effect Monochoria vaginalis” value ([13]; dose 2.5 g ai/a) was 5 (100%). For the same compound, the “Herbicidal Effect Monochoria vaginalis” value ([13]; dose 5 g ai/a) was 5 (100%), the “Herbicidal Effect Japanese bulrush” value ([14]; dose 2.5 g ai/a) was 3 (60%-less than 80%) and the “Herbicidal Effect Japanese bulrush” value ([14]; dose 5 g ai/a) was 5 (100%). The “Herbicidal Effect Flat sedge” value ([15]; dose 2.5 g ai/a) was 3 (60%-less than 80%), the “Herbicidal Effect Flat sedge” value ([15]; dose 5 g ai/a) was 4 (80%-less than 100%) and the “Phytotoxicity Rice plant” value (rice plant; dose 2.5 g ai/a) was 0. The “Phytotoxicity Rice plant” value (rice plant; dose 5 g ai/a) was 0, the “Herbicidal Effect southern crabgrass” value (southern crabgrass; dose 2.5 g ai/a) was 4 (80%-less than 100%) and the “Herbicidal Effect southern crabgrass” value (southern crabgrass; dose 5 g ai/a) was 5 (100%). The “Herbicidal Effect Common lambsquatters” value (common lambsquaters; dose 2.5 g ai/a) was 5 (100%), the “Herbicidal Effect Common lambsquatters” value (common lambsquaters; dose 5 g ai/a) was 5 (100%) and the “Herbicidal Effect slender amaranth” value (slender amaranth; dose 2.5 g ai/a) was 5 (100%). The “Herbicidal Effect slender amaranth” value (slender amaranth; dose 5 g ai/a) was 5 (100%), the “Herbicidal Effect common purslane” value (common purslane; dose 2.5 g ai/a) was 5 (100%) and the “Herbicidal Effect common purslane” value (common purslane; dose 5 g ai/a) was 5 (100%). The “Herbicidal Effect velvetleaf” value (velvetleaf; dose 2.5 g ai/a) was 3 (60%-less than 80%), the “Herbicidal Effect velvetleaf” value (velvetleaf; dose 5 g ai/a) was 4 (80%-less than 100%) and the Phytotoxicity wheat (wheat [9]; dose 2.5 g ai/a) was 0. For the same compound, the Phytotoxicity wheat (wheat [9]; dose 5 g ai/a) was 0, the Phytotoxicity corn (corn [10]; dose 2.5 g ai/a) was 0 and the Phytotoxicity corn (corn [10]; dose 5 g ai/a) was 0. For the same compound, the Phytotoxicity soybean (soybean [11]; dose 2.5 g ai/a) was 0 and the Phytotoxicity soybean (soybean [11]; dose 5 g ai/a) was 0.
